Reference: patent US20140371188A1, “COMPOSITIONS AND METHODS FOR INHIBITING MUSCLE ATROPHY AND INDUCING MUSCLE HYPERTROPHY” (UNIVERSITY OF IOWA RESEARCH FOUNDATION, priority 2011, published 2014)

Experiments:
[1] = tested on: immobilized tibialis anterior (TA) muscle; assay: Ursolic acid i.p., immobilization-induced skeletal muscle atrophy (TA weight, fiber diameter); type: in vivo, C57BL/6 mice; conditions: 200 mg/kg i.p. twice a day from day 0; TA immobilized day 2; harvest day 8; vs vehicle (corn oil)
Protocol: (§1) (A-E) Beginning on day 0, 6-8 wk old male C57BL/6 mice were given i.p. injections of ursolic acid (200 mg/kg) or an equal volume of vehicle (corn oil) twice a day. On day 2, the left tibialis anterior (TA) muscle of each mouse was immobilized. During immobilization, vehicle or ursolic acid continued to be administered via i.p. injection twice daily, and the right TA remained mobile and served as an intrasubject control. (A) On day 5, mice were euthanized and bilateral TA muscles were harvested. mRNA levels were determined with qPCR. In each mouse, mRNA levels from the immobile TA were normalized to values from the mobile TA, which were set at one. Data are means±SEM from ≧6 mice per condition. * P<0.05. (B-E) On day 8, bilateral TA muscles were harvested and weighed. (B) Effect of ursolic acid on skeletal muscle weight. In each mouse, the left (immobile) TA weight was normalized to the right (mobile) TA weight. Data are means±SEM from 10 mice per condition; ***P<0.001 by unpaired t-test. (C-E) Effect of ursolic acid on skeletal muscle fiber diameter. (C) Data are mean fiber diameters ±SEM from 10 immobilized TA muscles per condition; ***P<0.0001 by unpaired t-test. (D) Representative cross-sections of muscle fibers immunostained with anti-laminin antibody. (E) Data are fiber size distributions of >3000 fibers from 10 immobilized TA muscles per condition. […]

Cdkn1a mRNA = assay: Ursolic acid i.p., Cdkn1a mRNA by qPCR in immobilized TA muscle; type: in vivo, C57BL/6 mice; conditions: ursolic acid 200 mg/kg i.p. twice a day from day 0; TA immobilized day 2; harvest day 5; vs vehicle (corn oil)
Protocol: as §1, with “diameter.” for “diameter. (C) Data are mean fiber diameters ±SEM from 10 immobilized TA muscles per condition; ***P<0.0001 by unpaired t-test. (D) Representative cross-sections of muscle fibers immunostained with anti-laminin antibody. (E) Data are fiber size distributions of >3000 fibers from 10 immobilized TA muscles per condition.”
(§2) Exon Arrays and Quantitative Real-Time RT-PCR (qPCR) in Muscle and Myotubes—Extraction of skeletal muscle RNA and RNA hybridizations to Mouse Exon 1.0 ST arrays (Affymetrix) were performed as described previously (Ebert, S. M., et al. (2010) Mol. Endocrinol. 24, 790-799). […]

[2] = tested on: quadriceps muscle mRNAs (IGF-I, Ar, Ppargc1a, Tfam, Nos1, Vegfa, Hk2); assay: Diet containing 0.14% ursolic acid, qPCR of quadriceps muscle mRNAs; type: in vivo, C57BL/6 mice; conditions: diet containing 0.14% ursolic acid for 6 weeks, vs control diet
Protocol: (§3) (A) C57BL/6 mice were fed diets lacking or containing 0.14% ursolic acid for 6 weeks before quadriceps muscles were harvested for qPCR analysis of the indicated mRNAs. mRNA levels in ursolic acid-treated mice were normalized to mRNA levels in control mice, which were set at one. Data are means±SEM from 10 mice per condition; *P<0.05, **P<0.01. (B) Cultured C2C12 myoblasts were serum-starved for 6 hours, and then incubated for 2 minutes in the absence or presence of ursolic acid (10 μM) and/or recombinant human growth hormone (100 ng/ml), as indicated. Total cellular protein extracts were subjected to immunoprecipitation with anti-GHR antibody, followed by immunoblot analysis with anti-phospho-tyrosine or anti-GHR antibodies to assess phospho-GHR and total GHR, respectively.
Exon Arrays and Quantitative Real-Time RT-PCR (qPCR) in Muscle and Myotubes—Extraction of skeletal muscle RNA and RNA hybridizations to Mouse Exon 1.0 ST arrays (Affymetrix) were performed as described previously (Ebert, S. M., et al. (2010) Mol. Endocrinol. 24, 790-799). Exon expression arrays examining the effects of Gadd45a overexpression, fasting and muscle denervation in TA muscles of C57BL/6 mice were described previously (Banduseela, V. C., et al. (2009) Physiol. Genomics 39, 141-159; Welle, S., et al. (2004) Exp. Gerontol. 39, 369-377) and can be found in the NCBI Gene Expression Omnibus under GEO Series accession numbers GSE39196, GSE20103 and GSE39195, respectively. Myotube RNA was extracted using TRIzol solution (Invitrogen), and then purified using the RNeasy kit and RNase Free DNase Set (Qiagen). qPCR analyses of mRNAs encoding mouse ATF4, Gadd45a, Bax, caspase-3 (Casp3), androgen receptor (Ar), thyroid hormone receptor-α (Thra), growth hormone receptor (Ghr), hexokinase 2 (Hk2), Suclg1, Coxl1, Tfam, Nos1, MuRF1 (Trim63), atrogin-1 (Fbxo32), cathepsin L (Ctsl), Bnip3, Cdkn1a, PGC-1α (Ppargc1a), GLUT4 (S1c2a4), LC3a (Mapl1c3a) and Vegfa were performed using TaqMan Gene Expression Assays (Applied Biosystems). For qPCR studies, first strand cDNA was synthesized in a 20 μl reaction that contained 2 μg of RNA, random hexamer primers and components of the High Capacity cDNA reverse transcription kit (Applied Biosystems). qPCR was carried out using a 7500 Fast Real-Time PCR System (Applied Biosystems). All qPCR reactions were performed in triplicate and the cycle threshold (Ct) values were averaged to give the final results. To analyze the data, the ΔCt method was used, with level of 36B4 mRNA serving as the invariant control.
To test this, C57BL/6 mice were fed diets lacking or containing 0.14% ursolic acid for 6 weeks before quadriceps muscles were harvested for qPCR analysis. […] These effects of ursolic acid are consistent with ursolic acid's capacity to decrease Gadd45a and Cdkn1a expression.

[3] = general statement, no test described; cited from earlier work
[4] = biological target: T1, growth hormone receptor (GHR) (Mus musculus, UniProt P16882); assay: GHR phosphorylation in serum-starved C2C12 myoblasts (anti-GHR immunoprecipitation, phospho-tyrosine immunoblot); type: cell-based; conditions: ursolic acid 10 μM, 2 minutes; C2C12 myoblasts serum-starved 6 hours; absence or presence of recombinant human growth hormone 100 ng/ml
T1 construct: endogenous in cells; host or cells: C2C12 mouse myoblasts (ATCC CRL-1772), serum-starved for 6 hours
T1 sequence (P16882 25-650): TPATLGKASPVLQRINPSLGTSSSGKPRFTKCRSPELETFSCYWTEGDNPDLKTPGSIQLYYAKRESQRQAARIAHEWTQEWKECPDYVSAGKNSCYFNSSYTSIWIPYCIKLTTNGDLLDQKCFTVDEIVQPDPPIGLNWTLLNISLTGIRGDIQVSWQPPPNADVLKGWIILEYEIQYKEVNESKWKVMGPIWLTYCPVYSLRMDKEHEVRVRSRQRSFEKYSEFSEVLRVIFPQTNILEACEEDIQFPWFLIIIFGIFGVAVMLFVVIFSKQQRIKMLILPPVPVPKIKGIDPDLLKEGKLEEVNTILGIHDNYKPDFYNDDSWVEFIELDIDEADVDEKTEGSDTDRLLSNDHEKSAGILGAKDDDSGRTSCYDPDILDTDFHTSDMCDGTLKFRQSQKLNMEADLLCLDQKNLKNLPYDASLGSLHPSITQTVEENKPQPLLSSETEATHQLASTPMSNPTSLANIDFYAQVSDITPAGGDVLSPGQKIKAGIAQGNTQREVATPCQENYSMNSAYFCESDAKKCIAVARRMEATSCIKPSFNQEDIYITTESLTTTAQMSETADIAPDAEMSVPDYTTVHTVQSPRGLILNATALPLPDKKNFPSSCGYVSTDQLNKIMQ
Protocol: as §3
C2C12 Myotube Culture and Infection—Mouse C2C12 myoblasts were obtained from ATCC (CRL-1772), and maintained at 37° C. and 5% CO2 in Dulbecco's modified Eagle's medium (DMEM) (ATCC #30-2002) containing antibiotics (100 units/ml penicillin, 100 μg/ml streptomycin sulfate) and 10% (v/v) fetal bovine serum (FBS). Myoblasts were set up for experiments on day 0 in 6-well plates at a density of 2.5×10^5 cells/well. On day 2, differentiation was induced by replacing 10% FBS with 2% horse serum. On day 7, cells were rinsed once with PBS, and then 1 ml DMEM containing adenovirus was added to each well. […]

Gadd45a mRNA = assay: Ursolic acid i.p., Gadd45a mRNA by qPCR in immobilized TA muscle; type: in vivo, C57BL/6 mice; conditions: ursolic acid 200 mg/kg i.p. twice a day from day 0; TA immobilized day 2; harvest day 5; vs vehicle (corn oil)
Protocol: as §1, with “diameter.” for “diameter. (C) Data are mean fiber diameters ±SEM from 10 immobilized TA muscles per condition; ***P<0.0001 by unpaired t-test. (D) Representative cross-sections of muscle fibers immunostained with anti-laminin antibody. (E) Data are fiber size distributions of >3000 fibers from 10 immobilized TA muscles per condition.”
as §2

[5] = tested on: tibialis anterior (TA) muscle; assay: Ursolic acid i.p., recovery from immobilization-induced skeletal muscle atrophy after remobilization; type: in vivo, mouse; conditions: TA immobilized 7 days, then remobilized; 200 mg/kg i.p. twice daily started at remobilization; vs vehicle

## 3-β-hydroxy-urs-12-en-28-oic acid [ursolic acid]
[1]
  TA muscle weight, left (immobile) normalized to right (mobile): reduced the loss of muscle mass
  size (diameter) of skeletal muscle fibers in immobilized TA muscles: increased the size of skeletal muscle fibers
Cdkn1a mRNA
  Cdkn1a mRNA, immobile TA normalized to mobile TA: prevented induction
[2]
  Hk2 mRNA in quadriceps: increased
  IGF-I mRNA in quadriceps: increased
  Nos1 mRNA in quadriceps: increased
  PGC-1α (Ppargc1a) mRNA in quadriceps: increased
  Tfam mRNA in quadriceps: increased
  Vegfa mRNA in quadriceps: increased
  androgen receptor (Ar) mRNA in quadriceps: increased
[3]
  water solubility: highly water-insoluble
[4]
  GHR phosphorylation (phospho-GHR vs total GHR): increased GHR phosphorylation
Gadd45a mRNA
  Gadd45a mRNA, immobile TA normalized to mobile TA: prevented induction
[5]
  recovery of skeletal muscle mass after remobilization: significantly enhanced the recovery of skeletal muscle mass
